Measured values reported in PubChem BioAssay AID328 (DTP/NCI, 2004).
Inconclusive results and toxic doses are left out. Rule for the calls: active = survival T/C of 150% or more; inactive = T/C below 125% in these data.

System: BDF1 mice, P388 leukemia ip, median survival T/C
Test: NCI In Vivo Anticancer Drug Screen. Data for tumor model P388 Leukemia (intraperitoneal) in B6D2F1 (BDF1) mice
Settings: endpoint: median survival time, higher = longer survival
Outline: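 Read-out is survival of treated animals expressed relative to the vehicle group, as a T/C ratio.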

[1] = dose: 25.0 mg/kg/injection, schedule: Q01DX009 (ip), vehicle: saline
[2] = dose: 12.0 mg/kg/injection, schedule: Q04DX003 (ip), vehicle: saline
[3] = dose: 25.0 mg/kg/injection, schedule: Q01DX009 (ip), vehicle: Klucel (hydroxypropylcellulose) (HPC)

Measured: T/C

NCCO/C=C/C(N)C(=O)O (stereo unspecified)
inactive: dose: 4.0 mg/kg/injection, schedule: Q01DX009 (ip), vehicle: saline 99 % of control | dose: 6.0 mg/kg/injection, schedule: Q01DX009 (ip), vehicle: saline 100 % of control | dose: 9.0 mg/kg/injection, schedule: Q01DX009 (ip), vehicle: saline 93 % of control | dose: 12.5 mg/kg/injection, schedule: Q01DX009 (ip), vehicle: saline 104 % of control | [1] 107 % of control

O/N=c1\cc(-c2ccccc2)oc2ccccc12
inactive: dose: 3.13 mg/kg/injection, schedule: Q01DX009 (ip), vehicle: saline with Tween-80 95 % of control | dose: 6.25 mg/kg/injection, schedule: Q01DX009 (ip), vehicle: saline with Tween-80 95 % of control | dose: 12.5 mg/kg/injection, schedule: Q01DX009 (ip), vehicle: saline with Tween-80 112 % of control | dose: 25.0 mg/kg/injection, schedule: Q01DX009 (ip), vehicle: saline with Tween-80 123 % of control

NC(CSC(c1ccccc1)(c1ccccc1)c1ccc(CO)cc1)C(=O)O (stereo unspecified)
inactive: dose: 3.0 mg/kg/injection, schedule: Q01DX009 (ip), vehicle: Klucel (hydroxypropylcellulose) (HPC) 100 % of control | dose: 6.0 mg/kg/injection, schedule: Q01DX009 (ip), vehicle: Klucel (hydroxypropylcellulose) (HPC) 113 % of control | dose: 12.0 mg/kg/injection, schedule: Q01DX009 (ip), vehicle: Klucel (hydroxypropylcellulose) (HPC) 122 % of control | dose: 12.0 mg/kg/injection, schedule: Q01DX009 (ip), vehicle: saline 109 % of control | [2] 100 % of control | dose: 25.0 mg/kg/injection, schedule: Q04DX003 (ip), vehicle: saline 103 % of control | dose: 50.0 mg/kg/injection, schedule: Q04DX003 (ip), vehicle: saline 111 % of control
active: [3] 150 % of control | [1] 159 % of control | dose: 50.0 mg/kg/injection, schedule: Q01DX009 (ip), vehicle: Klucel (hydroxypropylcellulose) (HPC) 168 % of control | dose: 50.0 mg/kg/injection, schedule: Q01DX009 (ip), vehicle: saline 163 % of control | dose: 75.0 mg/kg/injection, schedule: Q01DX009 (ip), vehicle: Klucel (hydroxypropylcellulose) (HPC) 159 % of control | dose: 150.0 mg/kg/injection, schedule: Q01DX009 (ip), vehicle: Klucel (hydroxypropylcellulose) (HPC) 154 % of control | dose: 300.0 mg/kg/injection, schedule: Q01DX009 (ip), vehicle: Klucel (hydroxypropylcellulose) (HPC) 259 % of control | dose: 400.0 mg/kg/injection, schedule: Q01DX009 (ip), vehicle: Klucel (hydroxypropylcellulose) (HPC) 272 % of control | dose: 400.0 mg/kg/injection, schedule: Q04DX003 (ip), vehicle: saline 155 % of control

CCCCCCCCCCC(O)CCCCCCCCCC
inactive: dose: 50.0 mg/kg/injection, schedule: Q01DX009 (ip), vehicle: saline with Tween-80 100 % of control | dose: 100.0 mg/kg/injection, schedule: Q01DX009 (ip), vehicle: saline with Tween-80 95 % of control | dose: 200.0 mg/kg/injection, schedule: Q01DX009 (ip), vehicle: saline with Tween-80 90 % of control

CC(=O)Oc1ccc2c(c1)C(=O)C(Br)C1C2CCC2(C)C(OC(C)=O)CCC12 (stereo unspecified)
inactive: dose: 50.0 mg/kg/injection, schedule: Q01DX010 (sc), vehicle: steriod suspending solution 95 % of control | dose: 400.0 mg/kg/injection, schedule: Q01DX010 (sc), vehicle: steriod suspending solution 90 % of control

CC1(C)O[C@]2(C)CC[C@@H]1[C@@H](O)[C@@H]2N1CCOCC1
inactive: dose: 50.0 mg/kg/injection, schedule: Q01DX005 (ip), vehicle: saline 108 % of control | dose: 100.0 mg/kg/injection, schedule: Q01DX005 (ip), vehicle: saline 106 % of control | dose: 200.0 mg/kg/injection, schedule: Q01DX005 (ip), vehicle: saline 104 % of control

c1cc[c]([Pb]([c]2ccccc2)([c]2ccccc2)[n]2c3ccccc3c3ccccc32)cc1
inactive: dose: 0.19 mg/kg/injection, schedule: Q01DX009 (ip), vehicle: saline 90 % of control | dose: 0.39 mg/kg/injection, schedule: Q01DX009 (ip), vehicle: saline 100 % of control | dose: 0.78 mg/kg/injection, schedule: Q01DX009 (ip), vehicle: saline 95 % of control | dose: 1.56 mg/kg/injection, schedule: Q01DX009 (ip), vehicle: saline 100 % of control | dose: 3.0 mg/kg/injection, schedule: Q04DX003 (ip), vehicle: saline 112 % of control | dose: 4.12 mg/kg/injection, schedule: Q01DX009 (ip), vehicle: saline 100 % of control | dose: 6.0 mg/kg/injection, schedule: Q04DX003 (ip), vehicle: saline 116 % of control | [2] 104 % of control

N#Cc1nc2ccccc2nc1C#N
inactive: dose: 12.5 mg/kg/injection, schedule: Q01DX009 (ip), vehicle: Klucel (hydroxypropylcellulose) (HPC) 106 % of control | [3] 99 % of control

Cc1cccc(NC(=S)N(C)C)c1
inactive: dose: 100.0 mg/kg/injection, schedule: Q04DX003 (ip), vehicle: saline with Tween-80 95 % of control | dose: 200.0 mg/kg/injection, schedule: Q04DX003 (ip), vehicle: saline with Tween-80 100 % of control | dose: 400.0 mg/kg/injection, schedule: Q04DX003 (ip), vehicle: saline with Tween-80 100 % of control
